From US20100173834A1, “CYCLIC PEPTIDE MELANOCORTIN RECEPTOR LIGANDS” (priority 2007, published 2010)
Where a SMILES comes first, the peptide text is derived from it. Bridges are numbered along the chain shown (N, C = ends). [ ]: non-standard residue; d: D form.

What was measured:
[1] = target: T1, hMC1-R (Homo sapiens, UniProt Q01726); test: Radioligand binding assay, hMC1-R; parameters: expressed in transfected cells; host or cells: CHO-K1
Procedure: (§1) The CHO-K1 cells expressing the desired hMC-R receptor type were sonicated (Branson, Danbury, Conn.) (etting 7, approximately 30 sec) in ice-cold 50 mM Tris-HCl at pH 7.4 and then centrifuged at 39,000 g for 10 minutes at approximately 4° C. The pellets were resuspended in the same buffer and centrifuged at 50,000 g for 10 minutes at approximately 4° C. The washed pellets containing the cellular membranes were stored at approximately −80° C.
(§2) Filters were washed three times with 50 mM Tris-HCl at pH 7.4 at a temperature of approximately 0-4° C. and then assayed for radioactivity using a Packard Topcount® scintillation counter (GMI, Inc., Ramsey, Minn.).

[2] = target: T2, hMC4-R (Homo sapiens, UniProt P32245); test: Radioligand binding assay, hMC4-R
T2 construct: expressed in transfected cells; host or cells: CHO-K1
Procedure: (§3) The pellets were resuspended in the same buffer and centrifuged at 50,000 g for 10 minutes at approximately 4° C. The washed pellets containing the cellular membranes were stored at approximately −80° C.
as §2

[3] = target: T2, hMC4-R; test: Cyclic AMP bioassay, hMC4-R; type: cell-based
Procedure: (§4) Intracellular cyclic AMP (cAMP) levels were determined by an electrochemiluminescence (ECL) assay (Meso Scale Discovery, Gaithersburg, Md.) (referred to hereinafter as “MSD”). […] Transgenic CHO-K1 cells stably expressing hMC receptor subtypes 1, 3, 4 or 5 were dispensed at a density of approximately 7,000 cells/well in 384-well Multi-Array plates (MSD) containing integrated carbon electrodes and coated with anti-cAMP antibody. Increasing concentrations of the test compounds were added and the cells were incubated for approximately 40 minutes at approximately 37° C. […] At the end of the second incubation period read buffer (Tris-buffered solution containing an ECL co-reactant and Triton X-100 at ph 7.8) was added and the cAMP levels in the cell lysates were immediately determined by ECL detection with a Sector Imager 6000 reader® (MSD). Data were analyzed using a computer-assisted non-linear regression analysis (XL fit; IDBS) and reported as either an EC50 value or a Kb value.
(§5) The Kb value reflects the potency of an antagonist and is determined by Schild analysis. In brief, concentration-response curves of an agonist are carried out in the presence of increasing concentrations of an antagonist. […] It is calculated by extrapolating the line on a Schild plot to zero on the y-axis.

[4] = target: T1, hMC1-R; test: Cyclic AMP bioassay, hMC1-R
Procedure: as §4, §5

[5] = target: T3, hMC3-R (Homo sapiens, UniProt P41968); test: Cyclic AMP bioassay, hMC3-R; type: cell-based
T3 construct: expressed in transfected cells; host or cells: CHO-K1
Procedure: as §4, §5

[6] = target: T4, hMC5-R (Homo sapiens, UniProt P33032); test: Cyclic AMP bioassay, hMC5-R; type: cell-based
T4 construct: expressed in transfected cells; host or cells: CHO-K1
Procedure: as §4, §5

[7] = target: T4, hMC5-R; test: Radioligand binding assay, hMC5-R
Procedure: as §1, §2

[8] = target: T3, hMC3-R; test: Radioligand binding assay, hMC3-R
Procedure: as §3, §2

[9] = target: human melanocortin 3 receptor (human) (UniProt P41968); test: cell-based or functional assay
[10] = target: human melanocortin 4 receptor (human) (UniProt P32245); test: cell-based or functional assay
[11] = target: human melanocortin 5 receptor (human) (UniProt P33032); test: cell-based or functional assay
[12] = target: human melanocortin 1 receptor (human) (UniProt Q01726); test: cell-based or functional assay
[13] = target: human melanocortin 3 receptor (human) (UniProt P41968); test: competitive displacement of [125I]-NDP-alpha-MSH, membranes of CHO-K1 cells expressing hMC3-R

T2 sequence (P32245 whole entry): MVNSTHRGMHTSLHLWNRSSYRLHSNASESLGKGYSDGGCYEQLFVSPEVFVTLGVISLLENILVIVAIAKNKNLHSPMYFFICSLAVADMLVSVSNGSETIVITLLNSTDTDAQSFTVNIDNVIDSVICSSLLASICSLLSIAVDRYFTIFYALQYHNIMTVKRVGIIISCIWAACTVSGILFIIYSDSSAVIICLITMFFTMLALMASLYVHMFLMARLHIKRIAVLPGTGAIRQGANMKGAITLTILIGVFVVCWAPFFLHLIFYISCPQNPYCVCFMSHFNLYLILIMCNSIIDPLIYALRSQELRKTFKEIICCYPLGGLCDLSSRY
human melanocortin 4 receptor (human), sequence (P32245 whole entry): as above
T4 sequence (P33032 whole entry): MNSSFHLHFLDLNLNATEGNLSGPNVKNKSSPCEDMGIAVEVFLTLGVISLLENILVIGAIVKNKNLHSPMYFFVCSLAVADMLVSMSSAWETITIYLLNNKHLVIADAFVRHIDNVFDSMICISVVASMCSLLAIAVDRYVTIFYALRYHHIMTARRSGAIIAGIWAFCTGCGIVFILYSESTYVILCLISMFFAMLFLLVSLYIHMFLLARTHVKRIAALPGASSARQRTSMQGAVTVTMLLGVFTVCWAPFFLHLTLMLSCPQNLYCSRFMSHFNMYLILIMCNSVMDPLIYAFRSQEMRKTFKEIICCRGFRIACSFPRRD
human melanocortin 5 receptor (human), sequence (P33032 whole entry): as above
T1 sequence (Q01726 whole entry): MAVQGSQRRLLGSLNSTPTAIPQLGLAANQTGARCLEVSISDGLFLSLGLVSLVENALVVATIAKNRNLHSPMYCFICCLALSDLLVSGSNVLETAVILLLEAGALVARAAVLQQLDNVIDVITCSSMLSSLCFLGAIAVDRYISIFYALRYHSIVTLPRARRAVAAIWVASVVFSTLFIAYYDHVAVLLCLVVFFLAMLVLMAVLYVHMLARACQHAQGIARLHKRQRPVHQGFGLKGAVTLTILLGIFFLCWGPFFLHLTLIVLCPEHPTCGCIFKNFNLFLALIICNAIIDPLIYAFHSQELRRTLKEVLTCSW
human melanocortin 1 receptor (human), sequence (Q01726 whole entry): as above
T3 sequence (P41968 whole entry): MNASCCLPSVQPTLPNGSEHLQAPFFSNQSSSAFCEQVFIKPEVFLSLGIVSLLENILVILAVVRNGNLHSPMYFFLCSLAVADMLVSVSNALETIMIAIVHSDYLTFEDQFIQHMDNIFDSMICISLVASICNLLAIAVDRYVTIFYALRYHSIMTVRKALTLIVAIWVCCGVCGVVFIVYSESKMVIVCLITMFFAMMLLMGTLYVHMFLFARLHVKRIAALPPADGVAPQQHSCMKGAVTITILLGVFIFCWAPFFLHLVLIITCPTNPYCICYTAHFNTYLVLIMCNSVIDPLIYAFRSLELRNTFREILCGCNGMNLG
human melanocortin 3 receptor (human), sequence (P41968 whole entry): as above

Compound	Ki [1]	Ki [2]	EC50 [3]	EC50 [4]	EC50 [5]	EC50 [6]	Ki [7]	Ki [8]	EC50, cAMP bioassay (ECL) in CHO-K1 cells expressing hMC3-R [9]	EC50, cAMP bioassay (ECL) in CHO-K1 cells expressing hMC4-R [10]	EC50, cAMP bioassay (ECL) in CHO-K1 cells expressing hMC5-R [11]	EC50, cAMP bioassay (ECL) in CHO-K1 cells expressing hMC1-R [12]	Ki [13]
CC(=O)N[C@@H](Cc1cccc2ccccc12)C(=O)N[C@@H](CCCNC(=N)N)C(=O)N[C@H]1CSSC[C@@H](C(N)=O)NC(=O)[C@H](Cc2c[nH]c3ccccc23)NC(=O)[C@H](CCCNC(=N)N)NC(=O)[C@@H](Cc2ccccc2)NC(=O)[C@H](Cc2c[nH]cn2)NC(=O)[C@@H](C)NC1=O [Ac-1-Nal-Arg-c(Cys-D-Ala-His-D-Phe-Arg-Trp-Cys)-NH2]	6.27 nM	1.53 nM	0.363 nM	8.67 nM	4.21 nM	1320 nM	888 nM	36.4 nM	–	–	–	–	–
Ac-2-Nal-Arg-c(Cys-D-Ala-His-D-Phe-Arg-Trp-Cys)-NH2 (peptide)	–	–	–	–	–	–	–	–	6.11 nM	0.275 nM	1730 nM	9.66 nM	–
CC(=O)N[C@@H](Cc1ccccc1)C(=O)N[C@@H](CCCNC(=N)N)C(=O)N[C@H]1CSSC[C@@H](C(N)=O)NC(=O)[C@H](Cc2c[nH]c3ccccc23)NC(=O)[C@H](CCCNC(=N)N)NC(=O)[C@@H](Cc2ccccc2)NC(=O)[C@H](Cc2c[nH]cn2)NC(=O)[C@@H](C)NC1=O [Ac-Phe-Arg-c(Cys-D-Ala-His-D-Phe-Arg-Trp-Cys)-NH2] (Ac-FRC[dA]H[dF]RWC-NH2; disulfide 3-9)	1.48 nM	2.34 nM	–	–	–	–	491 nM	14.8 nM	–	–	–	–	–
CC(=O)N[C@@H](Cc1c[nH]c2ccccc12)C(=O)N[C@@H](CCCNC(=N)N)C(=O)N[C@H]1CSSC[C@@H](C(N)=O)NC(=O)[C@H](Cc2c[nH]c3ccccc23)NC(=O)[C@H](CCCNC(=N)N)NC(=O)[C@@H](Cc2ccccc2)NC(=O)[C@H](Cc2c[nH]cn2)NC(=O)[C@@H](C)NC1=O [Ac-Trp-Arg-c(Cys-D-Ala-His-D-Phe-Arg-Trp-Cys)-NH2] (Ac-WRC[dA]H[dF]RWC-NH2; disulfide 3-9)	4.7 nM	2.25 nM	0.219 nM	5.78 nM	3.95 nM	2580 nM	1470 nM	42 nM	–	–	–	–	–
Ac-Trp-Arg-c(Cys-D-Ala-His-D-Phe-Arg-Trp-Cys)-NH2 (peptide)	–	–	–	–	–	–	–	–	3.95 nM	0.219 nM	2580 nM	5.78 nM	–
CC(=O)N[C@@H](Cc1c(F)c(F)c(F)c(F)c1F)C(=O)N[C@@H](CCCNC(=N)N)C(=O)N[C@H]1CSSC[C@@H](C(N)=O)NC(=O)[C@H](Cc2c[nH]c3ccccc23)NC(=O)[C@H](CCCNC(=N)N)NC(=O)[C@@H](Cc2ccccc2)NC(=O)[C@H](Cc2c[nH]cn2)NC(=O)[C@@H](C)NC1=O [Ac-Pff-Arg-c(Cys-D-Ala-His-D-Phe-Arg-Trp-Cys)-NH2]	0.323 nM	1.95 nM	–	–	–	–	786 nM	1.33 nM	–	–	–	–	–
CC(=O)N[C@@H](Cc1ccc(O)cc1)C(=O)N[C@@H](CCCNC(=N)N)C(=O)N[C@H]1CSSC[C@@H](C(N)=O)NC(=O)[C@H](Cc2c[nH]c3ccccc23)NC(=O)[C@H](CCCNC(=N)N)NC(=O)[C@@H](Cc2ccccc2)NC(=O)[C@H](Cc2c[nH]cn2)NC(=O)[C@@H](C)NC1=O [Ac-Tyr-Arg-c(Cys-D-Ala-His-D-Phe-Arg-Trp-Cys)-NH2]	–	–	–	–	–	1540 nM	714 nM	–	–	–	–	–	–
CC(=O)N[C@@H](Cc1ccc2ccccc2c1)C(=O)N[C@@H](CCCNC(=N)N)C(=O)N[C@H]1CSSC[C@@H](C(N)=O)NC(=O)[C@H](Cc2c[nH]c3ccccc23)NC(=O)[C@H](CCCNC(=N)N)NC(=O)[C@@H](Cc2ccccc2)NC(=O)[C@H](Cc2c[nH]cn2)NC(=O)[C@@H](C)NC1=O [Ac-2-Nal-Arg-c(Cys-D-Ala-His-D-Phe-Arg-Trp-Cys)-NH2]	6.09 nM	2.02 nM	0.275 nM	9.66 nM	6.11 nM	1730 nM	864 nM	34.9 nM	–	–	–	–	–
Ac-1-Nal-Arg-c(Cys-D-Ala-His-D-Phe-Arg-Trp-Cys)-NH2 (peptide)	–	–	–	–	–	–	–	–	4.21 nM	0.363 nM	1320 nM	8.67 nM	–
Ac-Tyr-Arg-c(Cys-D-Ala-His-D-Phe-Arg-Trp-Cys)-NH2 (peptide)	–	–	–	–	–	–	–	–	2.39 nM	–	1540 nM	–	21.2 nM
